Laboratory results taken from PubChem BioAssay AID179 (DTP/NCI, 2004).
pEC50, pIC50: −log10 of the molar value. The source made the active and inactive calls.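 The calls were made as follows: active = compounds giving half or more protection of infected cells from virus-caused growth loss, again on retest; inactive = the rest.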 Where a SMILES comes first, the peptide text is derived from it. The star is where a group is joined. Boc = CC(C)(C)OC(=O)*

System: CEM cells HIV-1 protection, formazan growth assay
Assay: NCI AIDS Antiviral Assay
Conditions: for pIC50: measured here: growth of uninfected CEM cells
Outline: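 Protection of CEM cells against HIV-1 was scored from cell growth (soluble formazan) across five concentrations, with parallel uninfected cells. Lack of protection may reflect toxicity.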

Row | SMILES | pEC50 | pIC50 | outcome
1 | C[n+]1cc2c3c(ccc2c2ccc4cc5c(cc4c21)OCO5)OCO3 | < 5.80 | 6.54 | 
2 | Cc1ccc(NP(=O)(Oc2ccccc2)N(CCCl)CCCl)cc1 (centres undefined) | < 4.45 | 4.80 | 
3 | COc1ccc(/C=C2\NC(=S)N(CN3CCCCC3)C2=O)cc1 | < 3.70 | 4.51 | 
4 | COC(=O)CC1C(COC(C)=O)OC(n2cc(C)c(=O)[nH]c2=O)C1OC(C)=O (centres undefined) |  |  | inactive
5 | COC(=O)C1=C(c2ccc3c(c2)OCO3)OC(c2ccc3c(c2)OCO3)C1 (centres undefined) |  |  | inactive
6 | CC(=O)N1N=C(c2ccccc2Nc2ccccc2C2=NN(C(C)=O)C(c3ccccc3)O2)OC1c1ccccc1 (centres undefined) | < 3.70 | 5.21 | 
7 | N#CCCN(C1=NN(C(=O)CC(=O)Nc2cccc(Cl)c2)C(c2ccccc2)C1)c1ccccc1Cl (centres undefined) | < 4.16 | < 4.16 | 
8 | O=C1COc2cc(N3CCN(c4cccc(C(F)(F)F)c4)CC3)ccc2N1 | < 3.70 | < 3.70 | 
9 | CC(C)(C)[Si](C)(C)OCC1OC(n2ccc(=O)[nH]c2=O)C(O[Si](C)(C)C(C)(C)C)[C@@]12N[C@H](C(N)=O)CS2 (some centres undefined) | < 3.70 | 5.05 | 
10 | CC1(C)CC(=O)C(=CN2C(=O)CNC2=S)C(=O)C1 | < 3.70 | < 3.70 | 
11 | NS(=O)(=O)c1ccc(NC(=O)/C=C/C(=O)O)cc1 | < 3.70 | < 3.70 | 
12 | C[C@@H]1N[C@@H](C)Cc2c(-c3ccc(O)c4ccccc34)c(O)cc(O)c21 | < 3.70 | 4.51 | 
13 | CCOC(=O)CC(CC(=O)OCC)n1cnc2c(N)ncnc21 |  |  | inactive
14 | C(=NC12CC3CC(CC(C3)C1)C2)C1CCCCC1 | < 3.70 | < 3.70 | 
15 | COc1cccc(/C=N/[N-]C(N)=O)c1[O-].[OH3+].[Zn+2] | < 3.35 | 3.88 | 
16 | Cc1nc(=O)n2c(c1C(=O)Nc1ccc(Cl)cc1)NCCC2 |  |  | inactive
17 | CC(C)(c1ccccc1)c1ccc(OC#N)cc1 | < 4.24 | < 4.24 | 
18 | NC(=O)C(F)C(N)=O | < 3.70 | < 3.70 | 
19 | CCCCN(CCCC)CC(C(=O)Nc1ccc([N+](=O)[O-])cc1[N+](=O)[O-])/C(C)=N\NC(=O)c1ccncc1 (centres undefined) | < 4.25 | < 4.25 | 
20 | C=CC1(CC[C@]2(c3ccc(OC)c(OC)c3)C=[N+]([O-])O[C@H](O[C@@H]3CCCC[C@H]3C(C)(C)c3ccccc3)C2)OCC(C)(C)CO1 | < 3.70 | 4.95 | 
21 | O=C1OC(c2ccccc2)=N/C1=C/C=C/c1ccco1 |  |  | inactive
22 | CCOC(=O)N(C)C1(c2ccccc2)CCN(CCCC(=O)c2ccc(F)cc2)CC1 | < 3.70 | 4.08 | 

Row | SMILES | pEC50 | pIC50 | outcome
23 | CC1CN=C(N(C(=O)Nc2ccc(Cl)cc2)c2cccc(Cl)c2)S1 (centres undefined) |  |  | inactive
24 | O=C(O)C(SC1=NNC2(C(=O)N1)c1ccccc1-c1ccccc12)SC1=NNC2(C(=O)N1)c1ccccc1-c1ccccc12 |  |  | inactive
25 | CCOCc1ccccc1C1(O)c2ccccc2Oc2ccccc21 | < 3.70 | 3.73 | 
26 | CC1(c2ccccc2Cl)C(C#N)C(=O)NC(=O)C1C#N (centres undefined) | < 4.04 | 4.33 | 
27 | NC(CCOCCP(=O)(O)CCOCCC(N)C(=O)O)C(=O)O (centres undefined) | < 3.70 | < 3.70 | 
28 | CCN(CC)c1c(C)nnc2c(-c3ccccc3)cnn12 | < 4.73 | < 4.73 | 
29 | COc1ccc2c(c1)C=C(C(C)(C)C)NS2(=O)=O | < 4.01 | < 4.01 | 
30 | Cn1c(=O)c2c(nc3n2CCCC(=O)N3CCCCl)n(C)c1=O | < 4.00 | < 4.00 | 
31 | CN1CN(c2ccccc2)C2(CCN(CCc3cc4ccccc4o3)CC2)C1=O | < 3.70 | 5.09 | 
32 | C/C(=N\NC(N)=O)c1sc(-c2nc(C)c(/C(C)=N/NC(N)=O)s2)nc1C | < 5.02 | < 5.02 | 
33 | COC(=O)CNC(=O)C(Cc1ccccc1)NC(=O)C(Cc1ccccc1)NC(=O)OC(C)(C)C (stereo not drawn) (Boc-Phe-Phe-Gly-OMe; configuration not given here) | < 3.70 | 4.62 | 
34 | CC(C)=CCc1c2c(c3occ(-c4ccc(O)c(O)c4)c(=O)c3c1O)C=CC(C)(C)O2 | < 3.70 | 4.40 | 
35 | CCOP(=O)(OCC)C(C)(C)OC(=O)NC#N | < 3.70 | < 3.70 | 
36 | NC1=NCc2c(sc3c2CCCC3)N1 | < 3.70 | 4.73 | 
37 | O=C(CSc1c2ccccc2nc2ccccc12)Nc1ccccc1-c1ccccc1NC(=O)CSc1c2ccccc2nc2ccccc12 | < 5.72 | < 5.72 | 
38 | Cc1ccc(S(=O)(=O)N/N=c2/sc3ccccc3n2C)cc1 | < 3.70 | < 3.70 | 
39 | CC(C)(C)OC(=O)NCCc1ccc(N)cc1 | < 3.70 | 3.80 | 
40 | COC(=O)c1ncn(C2CCCCC2)c1O | < 3.70 | < 3.70 | 
41 | CCC12CCCN(Cc3ccccc3)C1c1c(n(C)c3ccccc13)C(C(=O)OC)C2 (centres undefined) | < 4.49 | < 4.49 | 
42 | O=C(N=Nc1cc(Cl)ccc1Cl)NNc1cc(Cl)ccc1Cl | < 3.70 | 4.95 | 
43 | O=C1C(c2ccccc2)=[N+]([O-])c2ccccc21 |  |  | inactive
44 | O=C1CCCCc2cccc(O)c21 | < 3.70 | < 3.70 | 

Row | SMILES | pEC50 | pIC50 | outcome
45 | COc1ccc2c(=O)c(S)coc2c1 | < 3.70 | 4.52 | 
46 | CC1=Nc2ccccc2S/C1=C1/C=NC(=NC#N)N=C1C(=O)Nc1cccc(Cl)c1 | < 4.08 | < 4.08 | 
47 | O=C(O)c1ccccc1CC1Cc2ccccc2C1 | < 3.70 | < 3.70 | 
48 | O=C1c2ccccc2C(=O)c2c(NCCNCCO)ccc(O)c21 |  |  | inactive
49 | CC1CCc2ccccc2O1 (centres undefined) | < 3.70 | < 3.70 | 
50 | CCN1CCC(O)(/C=C/c2ccccc2)C(C(=O)/C=C/c2ccccc2)C1 (centres undefined) |  |  | inactive
51 | O=C1CN(S(=O)(=O)c2ccc([N+](=O)[O-])cc2)CC(=O)CN(S(=O)(=O)c2ccc([N+](=O)[O-])cc2)CC(=O)CN(S(=O)(=O)c2ccc([N+](=O)[O-])cc2)C1 | < 3.70 | < 3.70 | 
52 | Cc1nc(Nc2ccc([N+](=O)[O-])cc2)sc1C(=O)/C=C/c1ccc(N(C)C)cc1 | < 4.48 | 4.73 | 
53 | Cc1cccc(C)c1NC(=O)CCCC(=O)C(C#N)c1ccccc1 (centres undefined) | < 3.13 | < 3.13 | 
54 | CCN(CC)CCN(C)c1ccc(/C=C/c2ccnc3ccccc23)cc1 |  |  | inactive
55 | Fc1ccc(C2SCc3nc4ccccc4n32)c(F)c1 (centres undefined) |  |  | inactive
56 | CCCC(=O)NC(Nc1ccc(F)cc1)(C(F)(F)F)C(F)(F)F |  |  | inactive
57 | CC(C)=C[C@@H]1C[C@H](C)[C@H]2CC[C@H](C)[C@H]3C(=O)C(O)=C(C)C(=O)[C@]123 | < 3.70 | 3.98 | 
58 | Cc1c(NC(=O)CCCl)c(=O)oc2c(C)c3occc(=O)c3cc12 | < 3.84 | 5.83 | 
59 | COC(=O)C1=C(C(=O)OC)P2(C)(C)OC(c3ccccc3)CN2C1(c1ccccc1)c1ccccc1 (centres undefined) | < 4.44 | 5.32 | 
60 | CC(=O)OCC1C(=O)OCC1C(=O)N1Cc2cc3ccccc3nc2C1 (centres undefined) | < 4.70 | 6.48 | 
61 | CC(CC(=O)N(C)[C@H](C[C@@H](C)C(Cl)(Cl)Cl)c1nccs1)C(Cl)(Cl)Cl (some centres undefined) |  |  | inactive
62 | CON[N+]([O-])=NC(C)C | 3.71 | < 3.70 | 
63 | CC(=O)O[C@H]1CC[C@H]2[C@@H]3CCC(C(C)=O)[C@H](C(=O)O)[C@H]3CC[C@]12C (some centres undefined) | < 3.70 | < 3.70 | 
64 | O=C(O)c1ccccc1-n1nc(C(=O)O)c(N=Nc2ccc(/C=C/c3ccc(N=Nc4c(C(=O)O)nn(-c5ccccc5C(=O)O)c4O)cc3S(=O)(=O)O)c(S(=O)(=O)O)c2)c1O | < 6.01 | < 6.01 | 
65 | CCOC(=O)C1=C(O)C(=O)c2ccoc2C1=O | < 4.10 | < 4.10 | 
66 | COc1cc(/C=C2/Cc3ccccc3C2=O)ccc1O | < 3.97 | 4.26 | 

Row | SMILES | pEC50 | pIC50 | outcome
67 | CCOC(=O)N/N=C(\CC)OCC | < 3.70 | < 3.70 | 
68 | Cc1cccc(-c2nc(=S)[nH][nH]2)c1 | < 3.02 | 3.38 | 
69 | CCP(=O)(CC)C(Cl)(Cl)C(O)C(Cl)(Cl)Cl (centres undefined) | < 3.70 | < 3.70 | 
70 | CCOC(=O)c1sc2c(c1OC(=O)c1ccco1)c(=O)n(-c1ccccc1)c(=S)n2-c1ccccc1 | < 3.70 | 5.08 | 
71 | NC(CSSCC(NC(=O)c1ccccc1)C(=O)O)C(=O)O (centres undefined) | < 3.70 | < 3.70 | 
72 | O=C(Oc1ccc(OC(=O)c2ccccc2)c(C(=O)c2ccccc2)c1C(=O)c1ccccc1)c1ccccc1 | < 3.70 | < 3.70 | 
73 | CNc1nnc(CNc2ccc(-c3nnc(NC)n3N)cc2)n1N | < 3.70 | < 3.70 | 
74 | Nc1cc(S(=O)(=O)O)c(O)c2c1C(=O)c1c(O)c(S(=O)(=O)O)cc(N)c1C2=O |  |  | inactive
75 | O=C(CC(=O)N1N=C(N2c3ccccc3Sc3ccccc32)CC1c1ccccc1)Nc1ccccc1Cl (centres undefined) | < 3.70 | < 3.70 | 
76 | CCCCCCCCCCCCCCCCCCSCC(COP(=O)(O)OP(=O)(O)O)OC(=O)CCCCCCCCCCCCCCC (centres undefined) | < 6.05 | < 6.05 | 
77 | CC1(C)/C(=N\O)C2(C#N)CCC1C2 (centres undefined) | < 3.70 | 3.78 | 
78 | CC(=O)Nc1ccccc1C[P+](c1ccccc1)(c1ccccc1)c1ccccc1 | < 3.70 | < 3.70 | 
79 | N#C/C=C/c1cccc(Cl)c1 | < 4.22 | < 4.22 | 
80 | Cc1cc2c(C(C)C)c(O)c(O)c(C=Nc3ccc(N=Nc4ccccc4)cc3)c2c(O)c1-c1c(C)cc2c(C(C)C)c(O)c(O)c(C=Nc3ccc(N=Nc4ccccc4)cc3)c2c1O |  |  | inactive
81 | COC(=O)C(C([CH-][N+](=O)[O-])c1ccccc1)[P+](c1ccccc1)(c1ccccc1)c1ccccc1 (centres undefined) | < 3.70 | 4.97 | 
82 | N#CC(NNC(=O)c1ccccc1O)c1ccccc1O (centres undefined) | < 4.04 | 5.80 | 
83 | CSC1=N/C(=C\c2cccs2)C(=O)N1CN1CCCCC1 | < 3.70 | < 3.70 | 
84 | [O-]c1on[n+]2c1Cc1ccccc1C2 | < 3.70 | < 3.70 | 
85 | CC1(C)CN2Cc3cccc(n3)CN(CC(C)(C)[N-]C(=O)C(C)(OCc3ccccc3)C2)CC(C)(OCc2ccccc2)C(=O)[N-]1.[Cu+2] (centres undefined) | < 3.70 | 3.93 | 
